Laboratory results from US20210205292A1, “INHIBITORS OF CREB-CBP INTERACTION FOR TREATMENT OF LEUKEMIA” (The Board of Trustees of the Leland Stanford Junior …, priority 2016, published 2021).

How the values were obtained:
Format in all cases: cell-based
[1] = tested on: HL60 (Human promyelocytic leukemia cell line); experiment: CellTiter Glo assay in HL60 cells; settings: HL-60, second Table 4
Description: (§1) The compounds prepared according to the methods described herein and tested for activity in the CellTiter Glo assay in HL60 (Human promyelocytic leukemia cell line), Jukat (human T lymphocyte cell line for acute T cell leukemia) and/or Nalm6 (human ALL cell line) cells.
(§2) Compounds were prepared according to the methods described herein and tested for activity in the CellTiter Glo assay in HL60 (Human promyelocytic leukemia cell line), Jukat (human T lymphocyte cell line for acute Tcell leukemia) and/or Nalm6 (human ALL cell line) cells.

[2] = tested on: Nalm6 (human ALL cell line); experiment: CellTiter Glo assay in Nalm6 cells; settings: NALM-6, second Table 4
Description: as §1, §2

[3] = tested on: Jukat (human T lymphocyte cell line for acute T cell leukemia); experiment: CellTiter Glo assay in Jukat cells; settings: second Table 4
Description: as §1, §2

SMILES	IC50 [1] [nM]	IC50 [3] [nM]	IC50 [2] [nM]
N#Cc1ccc(NC(=O)c2ccccc2O)cc1 [Compound 1]	1000 to 10000	–	–
N#Cc1ccc(NC(=O)c2cc(F)ccc2O)cc1Cl [Compound 5]	< 1000	–	–
N#Cc1ccc(NC(=O)c2cc(Br)ccc2O)cc1Cl [Compound 7]	< 1000	–	–
N#Cc1ccc(NC(=O)c2ccc(Br)cc2O)cc1Cl [Compound 13]	< 1000	–	–
N#Cc1ccc(NC(=O)c2cc(-c3ccccc3)ccc2O)cc1 [Compound 15]	1000 to 10000	< 1000	1000 to 10000
Cc1ccc(NC(=O)c2cc(F)ccc2O)cc1C#N [Compound 19]	1000 to 10000	–	–
N#Cc1cc(NC(=O)c2cc(F)ccc2O)ccc1F [Compound 20]	1000 to 10000	1000 to 10000	1000 to 10000
O=C(Nc1ccc(Cl)c(Cl)c1)c1cc(F)ccc1O [Compound 31]	< 1000	< 1000	1000 to 10000
O=C(Nc1ccc(F)c(F)c1)c1cc(F)ccc1O [Compound 32]	< 1000	< 1000	1000 to 10000
O=C(Nc1cccc(F)c1)c1cc(F)ccc1O [Compound 33]	1000 to 10000	1000 to 10000	1000 to 10000
Cc1cc(NC(=O)c2cc(F)ccc2O)ccc1Cl [Compound 34]	< 1000	–	–
Cc1cc(NC(=O)c2cc(Cl)ccc2O)ccc1Cl [Compound 35]	< 1000	–	–
Cc1cc(Cl)ccc1NC(=O)c1cc(F)ccc1O [Compound 36]	1000 to 10000	–	–
O=C(Nc1ccc(Cl)cc1F)c1cc(F)ccc1O [Compound 37]	1000 to 10000	< 1000	1000 to 10000
O=C(Nc1ccc(Cl)cc1Cl)c1cc(F)ccc1O [Compound 38]	< 1000	> 10000	1000 to 10000
O=C(Nc1ccc(F)cc1F)c1cc(F)ccc1O [Compound 39]	1000 to 10000	1000 to 10000	1000 to 10000
O=C(Nc1cccc(F)c1F)c1cc(F)ccc1O [Compound 40]	1000 to 10000	1000 to 10000	1000 to 10000
O=C(Nc1cc(F)cc(F)c1)c1cc(F)ccc1O [Compound 41]	< 1000	–	–
O=C(Nc1cc(Cl)cc(Cl)c1)c1cc(F)ccc1O [Compound 42]	< 1000	< 1000	1000 to 10000
O=C(Nc1cccc(Cl)c1)c1cc(F)ccc1O [Compound 43]	1000 to 10000	1000 to 10000	1000 to 10000

Further lines, with some results ahead:

IC50 [1] [nM]	IC50 [3] [nM]	SMILES	IC50 [2] [nM]
< 1000	–	N#Cc1ccc(NC(=O)c2cc(Br)ccc2O)cc1 [Compound 2]	–
< 1000	–	N#Cc1ccc(NC(=O)c2cc(Cl)ccc2O)cc1 [Compound 3]	–
< 1000	–	Cc1cc(NC(=O)c2cc(F)ccc2O)ccc1C#N [Compound 6]	–
< 1000	–	N#Cc1ccc(NC(=O)c2cc(F)ccc2O)cc1 [Compound 8]	–
< 1000	–	N#Cc1ccc(NC(=O)c2ccc(Br)cc2O)cc1 [Compound 9]	–
< 1000	–	N#Cc1ccc(NC(=O)c2ccc(F)cc2O)cc1 [Compound 10]	–
< 1000	–	N#Cc1ccc(NC(=O)c2ccc(Br)cc2O)c(Cl)c1 [Compound 11]	–
< 1000	–	N#Cc1ccc(NC(=O)c2ccc(Br)cc2O)c(F)c1 [Compound 12]	–
< 1000	–	N#Cc1ccc(NC(=O)c2ccc(Cl)cc2O)cc1 [Compound 16]	–
< 1000	< 1000	N#Cc1ccc(NC(=O)c2ccc(C(F)(F)F)cc2O)cc1 [Compound 17]	< 1000
< 1000	–	Cc1cc(NC(=O)c2cc(F)ccc2O)ccc1[N+](=O)[O-] [Compound 21]	–
< 1000	–	O=C(Nc1ccc([N+](=O)[O-])cc1Cl)c1cc(F)ccc1O [Compound 22]	–
< 1000	< 1000	O=C(Nc1ccc([N+](=O)[O-])cc1Cl)c1cc(Cl)ccc1O [Compound 23]	< 1000
< 1000	< 1000	CC(=O)Oc1ccc(Cl)cc1C(=O)Nc1ccc([N+](=O)[O-])cc1Cl [Compound 24]	< 1000
< 1000	–	Cc1cc(NC(=O)c2cc(Cl)ccc2O)ccc1[N+](=O)[O-] [Compound 25]	–
< 1000	–	O=C(Nc1ccc(Br)c(Cl)c1)c1cc(F)ccc1O [Compound 26]	–
< 1000	< 1000	CC(=O)Oc1ccc(F)cc1C(=O)Nc1ccc(Br)c(Cl)c1 [Compound 27]	–
< 1000	–	O=C(Nc1ccc(Br)c(Cl)c1)c1cc(Cl)ccc1O [Compound 30]	–
